Data set [1] has as its system rabbit eye. Put plainly: Conjunctival hyperemia in the rabbit eye after topical application. The format is in vivo. The note with it: first 2 hours, scale 0 (no hyperemia) to 4 (marked hyperemia with conjunctive chemosis). The method, then:
Conjunctival hyperemia in the rabbit eye of naturally occurring and modified prostaglandins and their novel prodrugs was evaluated during the first 2 hours after topical application of the respective test drug. The conjunctival hyperemia was graded on a scale from 0 to 4, 0 indicating complete absence of any hyperemia, and 4 indicating marked hyperemia with conjunctive chemosis.

Data set [2] in a line: In vitro penetration rate across isolated human skin in modified Franz cells. The note with it: for In vitro penetration rate (apparent flux), parent compounds: 10% suspension in pH 7.4 phosphate buffer (0.2 M), n=5, lowest detectable flux 1 μg/cm^2/h; for In vitro penetration rate (apparent flux), prodrug compounds: 10% solution in pH 7.4 phosphate buffer (0.2 M), n=5.
Experimental: The penetration rates of HPPs and their parent drugs through human skin were measured in vitro by modified Franz cells. The Franz cells have two chambers, the top sample chamber and the bottom receiving chamber. The human skin tissue (360-400 μm thick) that separates the top and the receiving chambers was isolated from the anterior or posterior thigh areas.
The compound tested (2 mL, 20% in 0.2 M phosphate buffer, pH. 7.4) were added to the sample chamber of a Franz cell. The receiving chamber contains 10 ml of 2% bovine serum albumin in saline which was stirred at 600 rpm. The cumulative amounts of the tested compounds penetrating the skin versus time were determined by high-performance liquid chromatography (HPLC) method.
In data set [3] the test system is cat eye. Briefly: Irritative effect or ocular discomfort in the cat eye after topical application. It counts as in vivo. The note with it: first 2 hours, scale 0 (no discomfort) to 4 (maximal irritation, complete lid closure). The method, then: Irritative effect or ocular discomfort in the cat eye of naturally occurring and modified prostaglandins and their novel prodrugs were evaluated during the first hours after the topical application of the respective test drug. The ocular discomfort was graded on a scale from 0 to 4, 0 indicating complete absence of any signs of discomfort, and 4 indicating maximal irritation as obvious from complete lid closure.

Data set [4] has as its system cats with ocular hypertension. Briefly: Intraocular pressure (IOP) reduction in cats with ocular hypertension produced by laser trabeculoplasty. The note with it: for Intraocular pressure, 24 hours after administration / Intraocular pressure, 36 hours after administration / Intraocular pressure, 48 hours after administration / Intraocular pressure, 60 hours after administration / Intraocular pressure, 72 hours after administration: one drop topical every 12 hours, 6 doses; for Intraocular pressure, baseline: prior to treatment. The format is in vivo, cat. The method, then:
The ability of certain compounds of the present invention to reduce intraocular pressure (IOP) was evaluated in cats with ocular hypertension produced by previously done laser trabeculoplastry. IOP was determined with a pneumatonometer after light corneal anesthesia with dilute proparacaine. Baseline IOP was determined prior to treatment with the test compound aqueous solution. 6 divided doses were administered over a period of 3 days (once every 12 hours). IOP was determined 24 hours after the initial dose and then once every 12 hours. The therapeutically efficient amount is typically between 0.001 and 0.01% in pH 7.2 phosphate buffer (0.1 M). The treatment was carried out in that one drop (about 30 micro liter) of the composition. The results of N,N-diethylaminoethyl 11,15-dihydroxy-9-oxoprost-13-en-1-oate.AcOH (A), N,N-diethylaminoethyl 11,15-dihydroxyl-9-oxoprosta-5,13-dien-1-oate.AcOH (B), N,N-diethylaminoethyl 9,11,15-trihydroxyprosta-5,13-dien-1-oate.AcOH(C), N,N-diethylaminoethyl 9,11-dihydroxy-15-keto-20-ethylprost-5,13-dien-1-oate.AcOH (9,11-dihydroxy-15-keto-20-ethylprostaglandin F2α N,N-diethylaminoethyl ester) (D), N,N-diethylaminoethyl (Z)-7-{(1R,2R,3R,5S)-3,5-dihydroxy-2-[(1E,3R)-3-hydroxy-4-[(α,α,α-trifluoro-m-tolyl)oxy]-1-butenyl]cyclopentyl}-5-heptenoate.AcOH (E), N,N-diethylaminoethyl (Z)-7{(1R,2R,3R,5S)-3,5-dihydroxy-2-[(3R)-3-hydroxy-5-phenylpentyl]cyclopentyl}-5-heptenoate.AcOH (F), and N,N-diethylaminoethyl (Z)-7-{(1R,2R,3R,5S)-3,5-Dihydroxy-2-[(1E,3S)-3-hydroxy-5-phenyl-1-pentenyl]cyclopentyl}-heptenoate.AcOH (G) are shown in Table 2.

Molecules are shown by their SMILES.

For `CCNC(=O)CCC/C=C\C[C@@H]1[C@@H](/C=C/[C@@H](O)CCc2ccccc2)[C@H](O)C[C@@H]1O` [Bimatoprost, reference compound], the “Degree of irritative effect (conjunctival hyperemia)” value (from here on “Degree … (conjunctival hyperemia)”) in data set [1] (dose 0.001% topical) is listed as 2.5. Besides, the “In vitro penetration rate (apparent flux), parent compounds” value in data set [2] is recorded as 0.001 mg/cm^2/h. The “Degree of irritative effect” value in data set [3] (dose 0.001% topical) stood at 2.5.

Take `CC(C)OC(=O)CCC/C=C\C[C@@H]1[C@@H](CC[C@@H](O)CCc2ccccc2)[C@H](O)C[C@@H]1O` [Latanoprost, 13,14-dihydro-17-phenyl-18,19,20-trinor PGF2α isopropyl ester, reference compound]: the “In vitro penetration rate (apparent flux), parent compounds” value in data set [2] was 0.001 mg/cm^2/h. In data set [3] (dose 0.001% topical), the “Degree of irritative effect” value stood at 2.5.

On to `CC(=O)O.CCCCCCCC(=O)C=C[C@H]1C(O)CC(O)[C@@H]1CC=CCCCC(=O)OCCN(CC)CC` (stereo partly drawn) [N,N-diethylaminoethyl 9,11-dihydroxy-15-keto-20-ethylprost-5,13-dien-1-oate.AcOH], for which the “Degree … (conjunctival hyperemia)” value in data set [1] (dose 0.01% topical) worked out at 1. Besides, the “In vitro penetration rate (apparent flux), prodrug compounds” value in data set [2] came to 1.05 mg/cm^2/h. Also, in data set [4] (dose 0.01%), the “Intraocular pressure, 24 hours after administration” value (“Intraocular pressure, 24 hours” below) stood at 16.5 ± 0.6; the “Intraocular pressure, 36 hours after administration” value (from here on “Intraocular pressure, 36 hours”) is given as 16.7 ± 0.4; the “Intraocular pressure, 48 hours after administration” value (shortened to “Intraocular pressure, 48 hours”) is listed as 16.8 ± 0.6; the “Intraocular pressure, 60 hours after administration” value (“Intraocular pressure, 60 hours” below) is reported as 17.1 ± 0.5. In addition, the “Intraocular pressure, 72 hours after administration” value (from here on “Intraocular pressure, 72 hours”) in data set [4] (dose 0.01%) was found to be 16.8 ± 0.5. The “Intraocular pressure, baseline” value in data set [4] (group dosed 0.01%) is 22.0 ± 0.6. The “Degree of irritative effect” value in data set [3] (dose 0.01% topical) was 1.

On to `CC(=O)O.CCCCC(C)(O)CC=C[C@H]1C(O)CC(=O)[C@@H]1CCCCCCC(=O)OCCN(CC)CC` (stereo partly drawn) [N,N-diethylaminoethyl 11,16-dihydroxy-9-oxo-16-methylprost-13-en-1-oate•AcOH], for which, in data set [2], the “In vitro penetration rate (apparent flux), prodrug compounds” value stood at 1.09 mg/cm^2/h.

As for `CC(=O)O.CCN(CC)CCOC(=O)CCC/C=C\C[C@@H]1[C@@H](/C=C/[C@@H](O)CCc2ccccc2)[C@H](O)C[C@@H]1O` [N,N-diethylaminoethyl (Z)-7-{(1R,2R,3R,5S)-3,5-Dihydroxy-2-[(1E,3S)-3-hydroxy-5-phenyl-1-pentenyl]cyclopentyl}-heptenoate.AcOH], the “Degree … (conjunctival hyperemia)” value in data set [1] (dose 0.001% topical) worked out at 1. Also, in data set [2], the “In vitro penetration rate (apparent flux), prodrug compounds” value turned out to be 0.85 mg/cm^2/h. In addition, in data set [4] (dose 0.001%), the “Intraocular pressure, 24 hours” value was found to be 15.2 ± 0.6; the “Intraocular pressure, 36 hours” value was determined as 15.4 ± 0.5; the “Intraocular pressure, 48 hours” value came out at 15.5 ± 0.4; the “Intraocular pressure, 60 hours” value is 15.4 ± 0.6. The “Intraocular pressure, 72 hours” value in data set [4] (dose 0.001%) came out at 15.4 ± 0.5. Besides, in data set [4] (group dosed 0.001%), the “Intraocular pressure, baseline” value came to 22.4 ± 0.6. The “Degree of irritative effect” value in data set [3] (dose 0.001% topical) is listed as 1.

`CC(=O)O.CCN(CC)CCOC(=O)CCC/C=C\C[C@@H]1[C@@H](/C=C/[C@@H](O)COc2cccc(C(F)(F)F)c2)[C@H](O)C[C@@H]1O` [N,N-diethylaminoethyl (Z)-7-{(1R,2R,3R,5S)-3,5-dihydroxy-2-[(1E,3R)-3-hydroxy-4-[(α,α,α-trifluoro-m-tolyl)oxy]-1-butenyl]cyclopentyl}-5-heptenoate.AcOH]: the “Degree … (conjunctival hyperemia)” value in data set [1] (dose 0.001% topical) was 1. Besides, the “In vitro penetration rate (apparent flux), prodrug compounds” value in data set [2] is on record as 0.91 mg/cm^2/h. In data set [4] (dose 0.001%), the “Intraocular pressure, 24 hours” value was found to be 15.1 ± 0.4; the “Intraocular pressure, 36 hours” value was determined as 15.0 ± 0.5; the “Intraocular pressure, 48 hours” value is recorded as 15.0 ± 0.4; the “Intraocular pressure, 60 hours” value stood at 14.9 ± 0.3. Further, the “Intraocular pressure, 72 hours” value in data set [4] (dose 0.001%) amounted to 15.1 ± 0.4. Moreover, the “Intraocular pressure, baseline” value in data set [4] (group dosed 0.001%) was determined as 22.1 ± 0.4. The “Degree of irritative effect” value in data set [3] (dose 0.001% topical) is 1.

As to `CC(=O)O.CCN(CC)CCOC(=O)CCC/C=C\C[C@@H]1[C@@H](CC[C@@H](O)CCc2ccccc2)[C@H](O)C[C@@H]1O` [N,N-diethylaminoethyl (Z)-7{(1R,2R,3R,5S)-3,5-dihydroxy-2-[(3R)-3-hydroxy-5-phenylpentyl]cyclopentyl}-5-heptenoate.AcOH], in data set [1] (dose 0.001% topical), the “Degree … (conjunctival hyperemia)” value worked out at 1. Besides, in data set [2], the “In vitro penetration rate (apparent flux), prodrug compounds” value is 0.95 mg/cm^2/h. In data set [4] (dose 0.001%), the “Intraocular pressure, 24 hours” value is given as 15.6 ± 0.5; the “Intraocular pressure, 36 hours” value is recorded as 15.7 ± 0.4; the “Intraocular pressure, 48 hours” value was 15.6 ± 0.5; the “Intraocular pressure, 60 hours” value stood at 15.5 ± 0.4. Also, the “Intraocular pressure, 72 hours” value in data set [4] (dose 0.001%) was 15.6 ± 0.6. For the same compound, in data set [4] (group dosed 0.001%), the “Intraocular pressure, baseline” value is on record as 22.5 ± 0.5. Moreover, in data set [3] (dose 0.001% topical), the “Degree of irritative effect” value is listed as 1.

For `CCCCC[C@H](O)/C=C/[C@H]1[C@H](O)CC(=O)[C@@H]1CCCCCCC(=O)O` [PGE1, reference compound], the “Degree … (conjunctival hyperemia)” value in data set [1] (dose 0.001% topical) is 4. Further, the “Degree of irritative effect” value in data set [3] (dose 0.001% topical) worked out at 4.

Take `CCCCC[C@H](O)/C=C/[C@@H]1[C@@H](CCCCCCC(=O)O)[C@@H](O)C[C@H]1O` [PGE1α, reference compound]: the “In vitro penetration rate (apparent flux), parent compounds” value in data set [2] amounted to 0.001 mg/cm^2/h.

As for `CCCCC[C@H](O)/C=C/[C@H]1[C@H](O)CC(=O)[C@@H]1C/C=C\CCCC(=O)O` [PGE2, reference compound], the “Degree … (conjunctival hyperemia)” value in data set [1] (dose 0.001% topical) amounted to 4. For the same compound, the “In vitro penetration rate (apparent flux), parent compounds” value in data set [2] is listed as 0.001 mg/cm^2/h. The “Degree of irritative effect” value in data set [3] (dose 0.001% topical) stood at 3.5.

Take `CCCCC[C@H](O)/C=C/[C@@H]1[C@@H](C/C=C\CCCC(=O)O)[C@@H](O)C[C@H]1O` [PGF2α, reference compound]: the “Degree … (conjunctival hyperemia)” value in data set [1] (dose 0.001% topical) was 4. The “Degree of irritative effect” value in data set [3] (dose 0.001% topical) was found to be 3.5.

Turning to `CCCCC[C@H](O)/C=C/[C@@H]1[C@H]2C/C(=C/CCCC(=O)O)O[C@H]2C[C@H]1O` [PGI2, prostacyclin, reference compound], the “In vitro penetration rate (apparent flux), parent compounds” value in data set [2] is 0.001 mg/cm^2/h.

As for `CCCCCC(C)(O)/C=C/[C@@H]1[C@@H](CC=C=CCCC(=O)OC)[C@@H](O)C[C@H]1O` (stereo partly drawn) [Prostalene, reference compound], the “In vitro penetration rate (apparent flux), parent compounds” value in data set [2] is 0.001 mg/cm^2/h.

In the case of `CS(=O)(=O)NC(=O)CCC/C=C\C[C@H]1C(=O)C[C@@H](O)[C@@H]1/C=C/[C@@H](O)COc1ccccc1` [Sulprostone, reference compound], the “In vitro penetration rate (apparent flux), parent compounds” value in data set [2] is 0.001 mg/cm^2/h.

Regarding `CCCCCCCC(=O)CC[C@@H]1[C@@H](C/C=C\CCCC(=O)O)[C@@H](O)C[C@H]1O` [Unoprostone, 13,14-dihydro-15-keto-20-ethyl Prostaglandin F2α, reference compound], the “Degree … (conjunctival hyperemia)” value in data set [1] (dose 0.01% topical) is on record as 2.5. In addition, the “In vitro penetration rate (apparent flux), parent compounds” value in data set [2] is recorded as 0.001 mg/cm^2/h. Further, the “Degree of irritative effect” value in data set [3] (dose 0.01% topical) came to 2.5.

In the case of `COC(=O)CCC=C=CCC1C(O)CC(O)C1/C=C/C(O)COc1ccccc1` (stereo not drawn) [fenprostalene, reference compound], the “In vitro penetration rate (apparent flux), parent compounds” value in data set [2] is listed as 0.001 mg/cm^2/h.

The record behind these values is patent US11555014B2, “High penetration prodrug compositions of prostaglandins and related compounds” (Techfields Pharma Co., Ltd., priority 2006, dated 2023).
